# Measurements: article PMC3834726 (Clinical cancer research : an official journal of the …, 2012)
# Read-outs that look alike come from different tables or passages of the source.
# Assays:
# [1] = human, in vivo
# [2] = system: advanced malignancies; assay: Tumor response; type: in vivo, human
# [3] = potent inhibitor of CYP2C19; cited from earlier work
# [4] = system: blood 20S proteasome; assay: Pharmacodynamics: blood 20S proteasome activity; type: in vivo, human
# [5] = including patients on dialysis; cited from earlier work
smiles,measurement,setting,value
"CC(C)C[C@H](NC(=O)[C@H](Cc1ccccc1)NC(=O)c1cnccn1)B(O)O [bortezomib, Bortezomib]",Disposition kinetics,[1],multi-exponential disposition kinetics
same,Dose calculated to match exposures at 1.3 mg/m^2 in normal hepatic function,[1],approximately 0.8 mg/m^2
same,Increase in dose-normalized AUC (systemic exposure),[1],approximately 60%
same,Increase in mean dose-normalized AUC0-tlast,[1],approximately 60%
same,Observed mean increase in dose-normalized AUC relative to normal hepatic function group,[1],1.6 fold
same,Deaths during the study,all patients,15
same,Died during treatment (reason for study discontinuation),all patients,2 (3%) n (%)
same,On-study deaths,"all patients, N=61",15 (25) n (%)
same,Deaths due to disease progression,"all patients, of 15 deaths",12
same,"Anorexia, any grade","human, in vivo",19 (31) n (%)
same,Any AE,"human, in vivo",59 (97) n (%)
same,Any drug-related AE,"human, in vivo",40 (66) n (%)
same,Any grade ≥3 AE,"human, in vivo",49 (80) n (%)
same,Any grade ≥4 AE,"human, in vivo",22 (36) n (%)
same,Any serious AE,"human, in vivo",28 (46) n (%)
same,"Decreased platelet count, any grade","human, in vivo",18 (30) n (%)
same,"Decreased platelet count, grade ≥3","human, in vivo",7 (11) n (%)
same,Discontinuation due to grade 3 hypotension,"human, in vivo",1 patient
same,Discontinuation due to grade 4 elevated blood bilirubin,"human, in vivo",2 patients
same,"Dyspnea, any grade","human, in vivo",19 (31) n (%)
same,"Elevated AST, incidence","human, in vivo",7%
same,"Elevated blood bilirubin, rate","human, in vivo",7%
same,"Fatigue, any grade","human, in vivo",31 (51) n (%)
same,"Fatigue, grade ≥3","human, in vivo",9 (15) n (%)
same,"Increased AST, grade ≥3","human, in vivo",6 (10) n (%)
same,"Increased blood bilirubin, grade ≥3","human, in vivo",7 (11) n (%)
same,"Nausea, any grade","human, in vivo",24 (39) n (%)
same,Rate of grade ≥3 AEs,"human, in vivo",71%
same,Rate of grade ≥4 AEs,"human, in vivo",14%
same,Dose-limiting toxicity (DLT),in vivo,none of these events met the protocol-defined criteria for DLT
same,Relation of elevations in liver function test parameters to drug,in vivo,not considered to be drug-related
same,On-study deaths,"mild impairment, 1.0 mg/m^2, n=6",0 n (%)
same,On-study deaths,"mild impairment, 1.3 mg/m^2, n=11",4 (36) n (%)
same,On-study deaths,"moderate impairment, 0.7 mg/m^2, n=9",2 (22) n (%)
same,On-study deaths,"moderate impairment, 1.0 mg/m^2, n=3",0 n (%)
same,On-study deaths,"normal hepatic function, 1.3 mg/m^2, N=14",2 (14) n (%)
same,On-study deaths,"severe impairment, 0.5 mg/m^2, n=5",2 (40) n (%)
same,On-study deaths,"severe impairment, 0.7 mg/m^2, n=6",3 (50) n (%)
same,On-study deaths,"severe impairment, 1.0 mg/m^2, n=7",2 (29) n (%)
same,Patients achieving stable disease,[2]; all hepatic function groups,five
same,Patients with progressive disease as best response,[2]; all patients,35
same,Study discontinuation due to disease progression,[2]; all patients,37 (61%) n (%)
same,Study discontinuation due to disease progression,[2]; mild impairment group,11 (65%) n (%)
same,Study discontinuation due to disease progression,[2]; moderate impairment group,9 (75%) n (%)
same,Study discontinuation due to disease progression,[2]; normal function group,8 (57%) n (%)
same,Study discontinuation due to disease progression,[2]; severe impairment group,9 (50%) n (%)
same,Bortezomib exposure on co-administration of omeprazole,[3],unaffected
same,Magnitude of percent inhibition of blood 20S proteasome activity,"[4]; 0.5 mg/m^2, severe hepatic impairment (data not shown)",lower than that observed at the higher dose levels
same,Time of maximum mean percent inhibition of blood 20S proteasome activity,"[4]; across dose levels and hepatic function groups, first post-dose time point",1 h
same,Mean percent inhibition of 20S proteasome activity at 24 hours post dose,"[4]; normal hepatic function group, 1.3 mg/m^2, day 1",approximately 31%
same,Pharmacokinetics in varying grades of renal impairment,[5],not altered
